Data from the supplement of paper PMC10307832.

Key:
Test in all cases: relative viability (nuclei count vs DMSO), 5 days (fraction); higher = more cells survive
[1] = test system: ABC-1
In short: (§1)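 Relative viability is defined as nuclei in treated wells over nuclei in vehicle wells. Duplicate plates were run and medians reported. Lung cancer cell lines in 1536-well plates were dosed by pin tool one day after seeding, with one drug or with a fixed anchor-drug dose plus five library-drug doses (not always all listed) in √10 steps, and nuclei were counted after 5 days.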

[2] = test system: ChaGo-K-1
In short: as §1

[3] = test system: HCC-366
In short: as §1

[4] = test system: HCC-78
In short: as §1

[5] = test system: LC-2-ad
In short: as §1

[6] = test system: LOU-NH91
In short: as §1

[7] = test system: LU99A
In short: as §1

[8] = test system: NCI-H1395
In short: as §1

[9] = test system: NCI-H1651
In short: as §1

[10] = test system: NCI-H1755
In short: as §1

[11] = test system: NCI-H1793
In short: as §1

[12] = test system: NCI-H1944
In short: as §1

[13] = test system: NCI-H2087
In short: as §1

[14] = test system: NCI-H2170
In short: as §1

[15] = test system: NCI-H2405
In short: as §1

[16] = test system: NCI-H3122
In short: as §1

[17] = test system: NCI-H460
In short: as §1

[18] = test system: PC-3 [JPC-3]
In short: as §1

[19] = test system: RERF-LC-KJ
In short: as §1

[20] = test system: UMC-11
In short: as §1

CC(=O)O[C@@]12CO[C@@H]1C[C@H](O)[C@@]1(C)C(=O)[C@H](O)C3=C(C)[C@@H](OC(=O)[C@H](O)[C@@H](NC(=O)OC(C)(C)C)c4ccccc4)C[C@@](O)([C@@H](OC(=O)c4ccccc4)[C@H]21)C3(C)C [Docetaxel] + Nc1ncn([C@H]2C[C@H](O)[C@@H](CO)O2)c(=O)n1 [Decitabine] (partner 2 µM)
relative viability ([1]; first compound 0.0002 µM): 1.04
relative viability ([1]; first compound 0.000632 µM): 0.923
relative viability ([1]; first compound 0.002 µM): 1.01
relative viability ([1]; first compound 0.006325 µM): 0.618
relative viability ([1]; first compound 0.02 µM): 0.416
relative viability ([2]; first compound 0.0002 µM): 0.461
relative viability ([2]; first compound 0.000632 µM): 0.548
relative viability ([2]; first compound 0.002 µM): 0.381
relative viability ([2]; first compound 0.006325 µM): 0.276
relative viability ([2]; first compound 0.02 µM): 0.21
relative viability ([3]; first compound 0.0002 µM): 0.292
relative viability ([3]; first compound 0.000632 µM): 0.12
relative viability ([3]; first compound 0.002 µM): 0.107
relative viability ([3]; first compound 0.006325 µM): 0.0547
relative viability ([3]; first compound 0.02 µM): 0.0292
relative viability ([4]; first compound 0.0002 µM): 0.627
relative viability ([4]; first compound 0.000632 µM): 0.654
relative viability ([4]; first compound 0.002 µM): 0.458
relative viability ([4]; first compound 0.006325 µM): 0.511
relative viability ([4]; first compound 0.02 µM): 0.353
relative viability ([5]; first compound 0.0002 µM): 0.769
relative viability ([5]; first compound 0.000632 µM): 0.714
relative viability ([5]; first compound 0.002 µM): 0.465
relative viability ([5]; first compound 0.006325 µM): 0.323
relative viability ([5]; first compound 0.02 µM): 0.272
relative viability ([6]; first compound 0.0002 µM): 0.822
relative viability ([6]; first compound 0.000632 µM): 0.841
relative viability ([6]; first compound 0.002 µM): 0.621
relative viability ([6]; first compound 0.006325 µM): 0.518
relative viability ([6]; first compound 0.02 µM): 0.379
relative viability ([7]; first compound 0.0002 µM): 0.87
relative viability ([7]; first compound 0.000632 µM): 0.872
relative viability ([7]; first compound 0.002 µM): 0.466
relative viability ([7]; first compound 0.006325 µM): 0.363
relative viability ([7]; first compound 0.02 µM): 0.204
relative viability ([8]; first compound 0.0002 µM): 0.709
relative viability ([8]; first compound 0.000632 µM): 0.731
relative viability ([8]; first compound 0.002 µM): 0.635
relative viability ([8]; first compound 0.006325 µM): 0.425
relative viability ([8]; first compound 0.02 µM): 0.295
relative viability ([9]; first compound 0.0002 µM): 0.458
relative viability ([9]; first compound 0.000632 µM): 0.547
relative viability ([9]; first compound 0.002 µM): 0.299
relative viability ([9]; first compound 0.006325 µM): 0.173
relative viability ([10]; first compound 0.0002 µM): 0.772
relative viability ([10]; first compound 0.000632 µM): 0.788
relative viability ([10]; first compound 0.002 µM): 0.604
relative viability ([10]; first compound 0.006325 µM): 0.463
relative viability ([10]; first compound 0.02 µM): 0.507
relative viability ([11]; first compound 0.0002 µM): 0.532
relative viability ([11]; first compound 0.000632 µM): 0.359
relative viability ([11]; first compound 0.002 µM): 0.278
relative viability ([11]; first compound 0.006325 µM): 0.2
relative viability ([11]; first compound 0.02 µM): 0.18
relative viability ([12]; first compound 0.0002 µM): 0.45
relative viability ([12]; first compound 0.000632 µM): 0.461
relative viability ([12]; first compound 0.002 µM): 0.406
relative viability ([12]; first compound 0.006325 µM): 0.291
relative viability ([12]; first compound 0.02 µM): 0.139
relative viability ([13]; first compound 0.0002 µM): 0.286
relative viability ([13]; first compound 0.000632 µM): 0.227
relative viability ([13]; first compound 0.002 µM): 0.172
relative viability ([13]; first compound 0.006325 µM): 0.0964
relative viability ([13]; first compound 0.02 µM): 0.098
relative viability ([14]; first compound 0.0002 µM): 0.472
relative viability ([14]; first compound 0.000632 µM): 0.437
relative viability ([14]; first compound 0.002 µM): 0.371
relative viability ([14]; first compound 0.006325 µM): 0.172
relative viability ([14]; first compound 0.02 µM): 0.151
relative viability ([15]; first compound 0.0002 µM): 0.724
relative viability ([15]; first compound 0.000632 µM): 0.75
relative viability ([15]; first compound 0.002 µM): 0.663
relative viability ([15]; first compound 0.006325 µM): 0.498
relative viability ([15]; first compound 0.02 µM): 0.341
relative viability ([16]; first compound 0.0002 µM): 0.441
relative viability ([16]; first compound 0.000632 µM): 0.409
relative viability ([16]; first compound 0.002 µM): 0.265
relative viability ([16]; first compound 0.006325 µM): 0.182
relative viability ([16]; first compound 0.02 µM): 0.126
relative viability ([17]; first compound 0.0002 µM): 0.443
relative viability ([17]; first compound 0.002 µM): 0.061
relative viability ([17]; first compound 0.006325 µM): 0.0383
relative viability ([17]; first compound 0.02 µM): 0.0286
relative viability ([18]; first compound 0.0002 µM): 0.816
relative viability ([18]; first compound 0.000632 µM): 0.849
relative viability ([18]; first compound 0.002 µM): 0.666
relative viability ([18]; first compound 0.006325 µM): 0.5
relative viability ([18]; first compound 0.02 µM): 0.294
relative viability ([19]; first compound 0.0002 µM): 0.716
relative viability ([19]; first compound 0.000632 µM): 0.542
relative viability ([19]; first compound 0.002 µM): 0.232
relative viability ([19]; first compound 0.02 µM): 0.146
relative viability ([20]; first compound 0.0002 µM): 0.399
relative viability ([20]; first compound 0.000632 µM): 0.613
relative viability ([20]; first compound 0.002 µM): 0.401
relative viability ([20]; first compound 0.006325 µM): 0.345
relative viability ([20]; first compound 0.02 µM): 0.238
